How the values were obtained:
[1] = system: 3T3-L1 adipocytes; assay: Lactic acid increase induced by metformin hydrochloride in 3T3-L1 adipocytes; format: cell-based, mouse; settings: for Lactic acid levels: additive 40 mM together with metformin hydrochloride 10 mM, medium after 24 hr, 30% O2/5% CO2
Description: Then the cells were differentiated to adipocytes according to the following procedure. […] The medium was changed with the same fresh medium every 48 hr until experiments. Lactic acid levels were measured by enzyme assay on lactate dehydrogenase and glutamate pyruvate transaminase, using Lactate Test BMY (Boehringer Mannheim). To the plate of the differentiated 3T3-L1 cells were added metoformin hydrochloride (10 mM) and various acids (40 mM), and the differentiated 3T3-L1 cells were incubated under 30% O2/5% CO2 condition for 24 hr. Lactic acid levels in the medium were measured.

[2] = system: rat hepatocytes primary culture; assay: Inhibition of gluconeogenesis in rat hepatocytes primary culture; format: cell-based; settings: 6 hr; for Glucose levels in the medium: Hanks solution containing 0.1% fructose
Description: Hepatocytes were isolated from a male Wistar rat. The isolated hepatocytes were grown on gelatin coated 24-well plate (3×10^5 cells/well) in Williams E medium containing 10 nM dexamethasone and 5% fetal calf serum under the 37° C., 5% CO2/95% air condition for 24 hr.
After the plates of hepatocytes primary culture were washed by phosphate buffer twice, the medium were changed to Hanks solution containing 0.1% fructose (depletion glucose). […] Glucose levels (mg/dL) in the medium were measured.

[3] = system: KKAy mice; assay: Reduction of blood sugar levels in diabetic model animals (KKAy mice), metformin hydrochloride + L-ascorbic acid study; format: in vivo, mouse; settings: p.o. twice a day for 5 days; for Blood glucose levels: 2 hr after last administration, metformin hydrochloride 600, L-ascorbic acid 2900, metformin hydrochloride 600 + L-ascorbic acid 2900 mg/kg/dose
From the text: . The experimental schedule was as follows.

[4] = system: KKAy mice; assay: Reduction of blood sugar levels in diabetic model animals (KKAy mice), metformin L-ascorbate study; settings: p.o. twice a day for 5 days; for Blood glucose levels: 2 hr after last administration, metformin hydrochloride 600, L-ascorbic acid 800, metformin L-ascorbate 1400 mg/kg/dose
[5] = system: 5/6 nephrectomy rats; settings: p.o. twice a day for 4 days
From the text: After 5-week old Wistar rats were acclimatized for 7 to 10 days, 2/3 of left kidney were removed. After the rats were bred and observed for 7 days, all right kidney was removed. After the rats were bred and observed for 7 to 10 days, the rats were used for experiments.
The experimental schedule was as follows. 5/6 Nephrectomy rats were divided into four groups according to their weight, blood urea nitrogen levels and serum creatinine levels after preliminary breeding and observation after purchase. […] The volume of administrated liquids was 5 mL/kg/dose. […] Blood was collected from tail vein under ether anesthetics at the day 5, and the blood lactic acid levels were measured.

O=C(O)CC(O)(CC(=O)O)C(=O)O [Citric acid, citric acid]
Lactic acid levels [1]: 155 mg/dL

O=C1O[C@H]([C@@H](O)CO)C(O)=C1O [L-ascorbic acid]
Glucose levels in the medium ([2]; 1 mM (each 1 mM for the combination)): 14.6 mg/dL
Glucose levels in the medium ([2]; 3 mM (each 3 mM for the combination)): 10.6 mg/dL
Effect on gluconeogenesis (in words) ([2]; 1 or 3 mM): Gluconeogenesis was reduced
Blood glucose levels [3]: 367.0 ± 45.3 mg/dL
Effect on lactic acid increase induced by metformin hydrochloride (in words) ([1]; 40 mM with metformin hydrochloride 10 mM, 24 hr): prevented lactic acid increase induced by metformin hydrochloride
Lactic acid levels [1]: 73 mg/dL
Blood glucose levels [4]: 392.8 ± 45.3 mg/dL

O=C(O)CC(O)C(=O)O (stereo not shown) [Malic acid, malic acid]
Lactic acid levels [1]: 143 mg/dL

CN(C)C(=N)N=C(N)N.O=C1OC(C(O)CO)C(O)=C1O [Metformin L-ascorbate]
Blood lactic acid levels ([5]; blood at day 5, metformin hydrochloride 250 mg/kg/dose, metformin L-ascorbate 461 mg/kg/dose, metformin hydrochloride 250 + L-ascorbic acid 266 mg/kg/dose (same moles of metformin)): 40.2 ± 6.2 (†)(*) mg/dL
Blood lactic acid levels compared with metformin hydrochloride group (in words) ([5]; day 5): significantly lower than metformin hydrochloride group
Blood lactic acid levels compared with vehicle group (in words) ([5]; day 5): significantly higher than vehicle group
Effect for reducing blood glucose levels (in words) [4]: Significant effects for reducing blood glucose levels
Blood glucose levels [4]: 270.3 ± 78.2 mg/dL

CN(C)C(=N)NC(=N)N.Cl [Metformin hydrochloride, 1,1-dimethylbiguanide hydrochloride]
Effect for reducing blood glucose levels (in words) [3]: Significant effects for reducing blood glucose levels
Blood glucose levels [3]: 286.5 ± 63.1 mg/dL
Effect for reducing blood glucose levels (in words) [4]: Significant effects for reducing blood glucose levels
Blood glucose levels [4]: 247.6 ± 30.2 mg/dL

O=C(O)CCC(=O)O [Succinic acid, succinic acid]
Lactic acid levels [1]: 145 mg/dL
